# Where two headings read alike, the source gives them in different places.
# Key:
# [1] = system: immune cells in lungs and spleen of LPS-challenged mice; experiment: LPS-induced inflammation model, IHC staining of immune cells in lungs and spleen; type: in vivo, mouse; conditions: lungs and spleen sections
# Experimental: (§1) C57BL/6J mice (6-8 weeks) were purchased from Charles River Laboratories (USA) and acclimatized for at least 1 week before use. All mice were housed in a pathogen-free facility. The mice received LPS for 24 hours. Following 24 hours, mice were treated either with lidocaine alone or methylnaltrexone alone or a combination of both, as shown in Table 1.
# At the conclusion of the study, the blood and tissue samples were collected for further study. The serum was used to determine pro-inflammatory cytokines using the LEGENDplex™ mouse inflammation panel (BioLegend, USA) kit followed by flow cytometry. The lungs and spleen tissue samples were used for hematoxylin and eosin (H&E) staining and immunohistochemical analyses for immune cells, including macrophages and natural killer (NK) cells, B cells, T cells, and its subsets. For histopathology and immunohistochemistry (IHC), tissue samples were prepared by cutting 4-µm sections from the paraffin blocks. IHC staining was performed by methods described earlier. The images were captured using bright field microscopy (Nikon Microscope). Two independent investigators evaluated the H&E and all immunohistochemical staining. For slide scoring, each investigator assessed the tissues and gave a score of 0 (no expression) to 4+ (strong uniform expression) as described previously. […]
# p-Src / total Src [2] = experiment: Total Src and p-Src expression in AsPc 1 human pancreatic cancer cell line (Western blot); type: cell-based; conditions: 10 µM lidocaine, 100 nM methylnaltrexone or both, one hour
# Experimental: Example 10 evaluated the effect of 10 µM lidocaine (L), 100 nM methylnaltrexone (M) and the combination of 10 µM lidocaine + 100 nM methylnaltrexone (L+M) for 1 hour on total Src and p-Src expression in a human pancreatic cancer cell line (AsPc 1).
# • P-Src-Tyr416 (GeneTex # GTX81151) 1:2000 in 5% bovine serum albumin, at room temperature, 4 hours • Total Src (CST # 2108S) 1:3000 in 5% bovine serum albumin, at room temperature, 4 hours
# [3] = system: LPS-induced serum inflammatory cytokines; experiment: LPS-induced inflammation model, serum inflammatory cytokines (LEGENDplex, flow cytometry); type: in vivo, mouse; conditions: serum of treated mice
# Experimental: as §1
# At the conclusion of the study, the blood and tissue samples were collected for further study. The serum was used to determine pro-inflammatory cytokines using the LEGENDplex™ mouse inflammation panel (BioLegend, USA) kit followed by flow cytometry. The lungs and spleen tissue samples were used for hematoxylin and eosin (H&E) staining and immunohistochemical analyses for immune cells, including macrophages and natural killer (NK) cells, B cells, T cells, and its subsets. For histopathology and immunohistochemistry (IHC), tissue samples were prepared by cutting 4-µm sections from the paraffin blocks. IHC staining was performed by methods described earlier. The images were captured using bright field microscopy (Nikon Microscope). Two independent investigators evaluated the H&E and all immunohistochemical staining. For slide scoring, each investigator assessed the tissues and gave a score of 0 (no expression) to 4+ (strong uniform expression) as described previously. The data were expressed either as the mean ± SD or mean ± SEM by using Graph Pad Prism software.
# Gram-negative bacterial infections are the main cause of acute lung injury, and LPS, which is the main component of the Gram-negative bacteria cell wall, is the major stimulus for the release of inflammatory mediators. Therefore, we measured the effect of lidocaine alone, methylnaltrexone alone, or a combination of lidocaine and methylnaltrexone on LPS-induced serum inflammatory cytokines profiles. Mouse inflammatory cytokines were measured in serum of control and LPS-challenged mice treated with drugs as described in Table 1, using the LEGENDplex™ mouse inflammation panel (BioLegend, USA) kit followed by flow cytometry as per manufacturer’s specifications. […] However, serum tumor necrosis factor-alpha (TNF-α), monocyte chemoattractant protein 1 (MCP- 1), interleukin 10 (IL-10), interleukin 6 (IL-6), and interleukin 17A (IL-17A) levels were found decreased in mice challenged with LPS and treated with lidocaine and methylnaltrexone together (FIGS. 14C-G). IL-1, IL-6, IL-17A, MCP-1, and TNFα are pro- inflammatory cytokines associated with inflammatory signaling. Taken together, these findings indicate that combined treatment of lidocaine and methylnaltrexone has the potential to suppress inflammatory signaling.
# p-Src / total Src [4] = type: cell-based, mouse
# Experimental: On day 1, mouse KPC-105 cells were cultured until 300,000 cells per well in a 6 well plate were obtained. On day 2, the cells were treated with 0, 0.5, 1,5, 10, 15, 30, 50 and 100 µM lidocaine for 30 minutes. Plates were then collected and washed with phosphate buffered saline and stored at -80° C. Cells were subsequently lysed with 100 µl of radioimmunoprecipitation assay buffer with protease and phosphatase buffers.
# Protein estimation was done using a Bradford assay under the following conditions: • A Western Blot was stripped with 6 M guanidine hydrochloride after p-Src protein blocking to probe with total Src protein. • 10% SDS-PAGE 10 well Blocking: 5% bovine serum albumin for p-Src blot. • P-Src-Tyr416 (GeneTex GTX81151) Rb: 1:1000 in 5% bovine serum albumin, Overnight. • Total Src (Cell Signaling Technology 2108S ) Rb mAb 1:1000 overnight in 5% milk. • GAPDH (Invitrogen# AM4300) : 1:5000 in 5% milk overnight. • Wash: 4x for 5 minutes each with 1x TBST. • Developed using 50% femto for the p-Src protein and homemade ECL substrate for total Src and GAPDH protein.
# Example 4 evaluated endogenous Src and p-Src in 10 µM lidocaine treated mouse KPC-105 cells at different time points.
# Example 5 evaluated endogenous Src and p-Src in mouse KPC-105 cells treated with 10 10 µM lidocaine for different time points, and increasing doses of methylnaltrexone after one hour of incubation. Western Blot banding patterns were generated using 15 µg /lane (NP40 lysates) 10% SDS PAGE over a 6-hour duration (lidocaine) and a 1-hour duration (methylnaltrexone).
# • P-Src-Tyr416 (GeneTex # GTX81151) Rb: 1:1000 in 5% bovine serum albumin o/n at 4° C. • 10 µg /lane (NP40 lysates) 10% SDS PAGE • Total Src (CST # 2108S ) Rb mAb 1:1000 in 5% bovine serum albumin o/n at 4° C.
# • P-Src-Tyr416 (GeneTex # GTX81151) Rb: 1:1000 in 5% bovine serum albumin 3 hours at room temperature • 10 µg /lane (NP40 lysates) 10% SDS PAGE • Total Src (CST # 2108S ) Rb mAb 1:1000 in 5% bovine serum albumin 3 hours at room temperature
# • P-Src-Tyr416 (GeneTex # GTX81151) 1:2000 in 5% bovine serum albumin, o/n at 4° C. • Total Src (CST # 2108S ) 1:3000 in 5% bovine serum albumin, o/n at 4° C. • Vinculin (ProteinTech) 1:4000 in 5% milk o/n at 4° C.
# • P-Src-Tyr416 (GeneTex # GTX81151) 1:2000 in 5% bovine serum albumin, o/n at 4C • Total Src (CST # 2108S ) 1:3000 in 5% bovine serum albumin, o/n at 4C
# [5] = Example 4, 10 µM lidocaine, different time points
# [6] = Example 8, 10 µM lidocaine, 100 nM methylnaltrexone or both, different time points
structure (smiles),measurement,setting,value
"CCN(CC)CC(=O)Nc1c(C)cccc1C [lidocaine, 2-diethylaminoaceto-2′,6′-xylidide]",F4/80 positive area (macrophages),[1],partially decreased
same,p-Src activity,p-Src / total Src [2],attenuated p-Src activity
same,serum interferon-gamma (IFNγ) level,[3],insignificant changes
same,serum interleukin 1 alpha (IL-1α) level,[3],insignificant changes
same,dose from which the level of p-Src protein is reduced,"p-Src / total Src [4]; Example 3, 30 minutes of treatment, 0-100 µM tested",≥ 10 µM
same,Src phosphorylation (p-Src),p-Src / total Src [4]; [5],attenuated Src phosphorylation after 15 minutes and up to 6 hours
same,total Src,p-Src / total Src [4]; [5],not affected
same,total Src,"p-Src / total Src [4]; Example 5, 10 µM lidocaine over 6 hours, increasing doses of methylnaltrexone, 1 hour",not affected
same,Src phosphorylation (p-Src),"p-Src / total Src [4]; Example 5, 10 µM lidocaine, different time points, inconsistent banding pattern","attenuated Src phosphorylation at 30 minutes, 1 hour, 2 hours, and 6 hours"
same,phosphorylation of Src,p-Src / total Src [4]; [6],attenuated phosphorylation of Src after 1 hour of exposure
same,total Src,p-Src / total Src [4]; [6],decreased total Src after 1 hours of exposure

# Source: US20230158015A1, “DRUG COMBINATIONS FOR INHIBITING INFLAMMATION AND SRC KINASE ACTIVATION FOLLOWING INVASIVE SURGICAL PROCEDURES” (SINTETICA S.A., priority 2020, published 2023)
